In patent publication US20070155755A1, “N-arylshydroxyalkylidene-carboxamide compositions and methods” (priority 2004, published 2007):
Each block holds one compound with its values, some of them ahead of it.

Experiments:
skin of the upper lip = assay: Cooling sensation bioassay, ointment applied to skin above the upper lip (philtrum); format: in vivo, human; details: for duration of action (in words): application to the skin of test subjects; for duration of action, cooling on the skin of the upper lip (FIG. 1 legend): in Aquaphor ointment, concentration not given; for quality of sensation and duration (coolness not cold, duration at least three hours): philtrum method of testing; for duration of action, cooling on the skin of the upper lip: 0.5% wt/vol in Aquaphor ointment
Description: A reliable place for topical application is on the upper lip, above the vermillion border of the lips, on the philtrum, lateral to the philtrum until the nasolabial folds, and on the lower nostrils. This part of the face is known to be densely innervated with cold receptors, second only to the surface of eyeball. Tingling, cool and cold sensations may be experienced and rated for intensity. This test is quite accurate for predicting the cooling activity of candidate N-arylshydroxyalkylidene-cCarboxamide drugs, but most importantly, it also measures the duration of drug action on the sensory receptors. The duration of action is not measured in a receptor assay and is difficult to quantify on the tongue because of the dynamic fluid conditions in the oral cavity and the presence of taste factors that affect thermosensation.
Bioassay Procedures For bioassay of CPS-195 on the skin, CPS-195 was stirred and dissolved in warm liquid Aquaphor® ointment to yield ointment concentrations of 0.25, 0.5, 1 and 2% wt/vol. After cooling, 50 to 80 mg of the solid ointment was placed on the tip of a plastic stick and applied to the skin above the upper lip, on the philtrum, and lateral to the philtrum up to the nasolabial folds, of test subjects and the onset and duration of cooling sensations recorded.
The intensity of the subjective skin sensation is rated as 0, 1, 2 or 3 with: 0 as no change, 1 as slight coolness, cold, or tingling, 2 as clear cut signal of coolness, cold, or tingling, and 3 as robust cooling or cold. The interval for recording sensations is at 5 min intervals, until two successive zeroes are obtained. The results are averaged values of 4 to 6 separate trials in the same individual. The data are plotted using SigmaPlot (Systat Software, Point Richmond Calif.) and a smoothing function with a negative exponential was used for analysis and statistical fit of the results.
The onset of drug action is taken as the time to reach 2 units of coolness intensity, and offset of drug action is the time when coolness intensity drops below 1.5, after previously surpassing 2 units. The duration of cooling action is defined as the offset time minus the onset time, which in this case averaged […]. The quality of the sensation is also noted, such as refreshing coolness, cold, or if the sensation is accompanied by irritation (stinging or burning). The quality of the sensation is not rated for intensity.

[1] = test system: dorsal surface of the tongue; assay: Cooling sensation after placement on the dorsal surface of the tongue; format: in vivo, human; details: 2 mg on dorsal surface of the tongue
Procedure: The onset of cooling was 3 to 5 min, but once the effect was established, the entire oral cavity and pharyngeal surfaces (oro-, laryngo- and naso-pharynx) felt cool.

[2] = test system: throat irritation and cough; assay: Ludipress tablet on the tongue in an individual with throat irritation and cough; format: in vivo, human; details: 3% wt/wt tablet in Ludipress, 60 mg (1.8 mg CPS-195)
Procedure: CPS-195 was formulated as a 3% wt/wt tablet in Ludipress®, a rapidly disintegrating direct compression excipient made by BASF Corp. The tablet size was 60 mg so each unit contained 1.8 mg of CPS-195. […] For example, applied onto the mucous membranes of the oral cavity it can soothe the discomforts of pharyngitis/laryngitis, oral mucositis, oral ulcers, and idiopathic facial pain. In the pharynx and upper airways, CPS-195 may be used to reduce or to treat cough, asthma, and chronic obstructive pulmonary disease. On the skin, CPS-195 can be used to treat the discomfort of severe acne, eczema, diabetic ulcers, and the like.

TRP-M8 receptor = biological target: T1, TRP-M8 receptor (Homo sapiens, UniProt Q7Z2W7); assay: TRP-M8 receptor assay; format: cell-based
T1 construct: expressed in transfected cells
T1 sequence (Q7Z2W7 whole entry): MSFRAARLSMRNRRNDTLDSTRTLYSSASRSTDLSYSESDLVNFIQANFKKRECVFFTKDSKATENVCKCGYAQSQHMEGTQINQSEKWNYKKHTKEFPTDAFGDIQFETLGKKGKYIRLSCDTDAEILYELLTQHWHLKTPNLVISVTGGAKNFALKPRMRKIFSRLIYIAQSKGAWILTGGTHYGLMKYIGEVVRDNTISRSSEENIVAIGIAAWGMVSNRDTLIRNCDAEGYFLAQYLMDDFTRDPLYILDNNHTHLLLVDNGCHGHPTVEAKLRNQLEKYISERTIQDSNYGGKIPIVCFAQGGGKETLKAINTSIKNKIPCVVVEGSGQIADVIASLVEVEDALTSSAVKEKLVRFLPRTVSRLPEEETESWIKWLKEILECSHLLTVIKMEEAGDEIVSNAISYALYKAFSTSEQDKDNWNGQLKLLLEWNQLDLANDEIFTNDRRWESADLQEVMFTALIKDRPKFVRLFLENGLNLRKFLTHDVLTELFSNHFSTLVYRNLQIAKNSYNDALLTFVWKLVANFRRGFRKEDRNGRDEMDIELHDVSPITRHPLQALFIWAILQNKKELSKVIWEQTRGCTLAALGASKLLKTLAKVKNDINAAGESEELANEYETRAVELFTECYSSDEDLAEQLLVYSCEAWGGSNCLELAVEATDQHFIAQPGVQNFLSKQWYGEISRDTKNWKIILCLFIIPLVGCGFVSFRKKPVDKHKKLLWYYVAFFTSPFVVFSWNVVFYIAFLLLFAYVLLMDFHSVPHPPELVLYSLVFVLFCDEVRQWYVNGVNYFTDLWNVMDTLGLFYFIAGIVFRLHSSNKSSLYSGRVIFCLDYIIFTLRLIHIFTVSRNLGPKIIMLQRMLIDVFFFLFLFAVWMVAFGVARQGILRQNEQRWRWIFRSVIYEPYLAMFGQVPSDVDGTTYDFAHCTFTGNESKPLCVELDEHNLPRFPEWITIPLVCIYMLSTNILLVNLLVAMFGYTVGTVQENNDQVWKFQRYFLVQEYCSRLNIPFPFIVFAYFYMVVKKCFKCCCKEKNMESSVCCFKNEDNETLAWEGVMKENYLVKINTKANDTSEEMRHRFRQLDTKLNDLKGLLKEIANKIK
Description: Tests for Activities of New Compounds. Pain was defined by Sir Charles Sherrington as “the psychic adjunct of an imperative protective reflex”. Psychic events such as cooling, irritation, itch, and pain cannot be expressed by animals (animals cannot say “ouch” or that “it itches”) so the sensory effects of chemicals must be indirectly inferred. Receptor assays, based on cells transfected with the gene for TRP-M8 or TRP-A1, may be used as a model of sensory processes. […] The best information on the pharmacological properties of these chemicals must therefore be derived from human experiment.

Structure (SMILES): CC1CCC(C(C)C)C(O)C1 (single isomer, unassigned; (-)) [(−)-menthol, reference compound]
duration of action (in words) (skin of the upper lip): active for less than one hour

Structure (SMILES): CC(C)[C@@H]1CC[C@@H](C)C[C@H]1C(=O)N(C)CC(O)c1cccc(O)c1 (stereo in doubt) [CPS-195, 2-Isopropyl-5-methyl-cyclohexanecarboxylic acid [2′-hydroxy-2′-(3″-hydroxy-phenyl)-ethyl]-N-methyl-amide]
onset of cooling [1]: 3 to 5 min | duration of action, coolness and cold on the skin of the upper lip (skin of the upper lip; 0.25% wt/vol in Aquaphor ointment): 1.2 h | duration of action, coolness and cold on the skin of the upper lip (skin of the upper lip; 1% wt/vol in Aquaphor ointment): 2.4 h | duration of action, coolness and cold on the skin of the upper lip (skin of the upper lip; 2% wt/vol in Aquaphor ointment): 5.2 h | duration of action, cooling on the skin of the upper lip (FIG. 1 legend) (skin of the upper lip): more than 1 hr | potency compared to CPS-179, CPS-190 and CPS-192 (skin of the upper lip; upper lip ointment test): most potent | duration of antitussive effect [2]: 24 h | effect on throat irritation [2]: reduced throat irritation

Structure (SMILES): CC(C)[C@@H]1CC[C@@H](C)C[C@H]1C(=O)Nc1ccc(S(=O)(=O)Nc2ncccn2)cc1 [CPS-125]
quality of sensation and duration (coolness not cold, duration at least three hours) (skin of the upper lip): qualitative aspects of sensation are met

Structure (SMILES): CC(=O)c1ccc(C(CO)CNC(=O)[C@@H]2C[C@H](C)CC[C@H]2C(C)C)cc1 (stereo partly shown) [CPS-179, 2-Isopropyl-5-methyl-cyclohexanecarboxylic acid [2′-(4″-acetyl-phenyl)-3′-hydroxy-propyl]-amide]
duration of action, cooling on the skin of the upper lip (skin of the upper lip): more than 1 hr | duration of action, cooling on the skin of the upper lip (FIG. 1 legend) (skin of the upper lip): more than 1 hr

Structure (SMILES): CC1CCC(C(C)C)C(C(=O)N(C)CC(O)c2ccc(O)c(O)c2)C1 (stereo not shown) [CPS-190]
duration of action, cooling on the skin of the upper lip (skin of the upper lip): more than 1 hr | duration of action, cooling on the skin of the upper lip (FIG. 1 legend) (skin of the upper lip): more than 1 hr

Structure (SMILES): CC1CCC(C(C)C)C(C(=O)NCC(O)c2cccc(O)c2)C1 (stereo not shown) [CPS-192]
duration of action, cooling on the skin of the upper lip (skin of the upper lip): more than 1 hr | duration of action, cooling on the skin of the upper lip (FIG. 1 legend) (skin of the upper lip): more than 1 hr

Structure (SMILES): CCOC(=O)CNC(=O)[C@@H]1C[C@H](C)CC[C@H]1C(C)C [WS-5, reference compound]
duration of action (in words) (skin of the upper lip): active for less than one hour

activity on the TRP-M8 receptor assay (TRP-M8 receptor): active at sub-micromolar concentrations
Structure (SMILES): COc1ccc(NC(=O)[C@@H]2C[C@H](C)CC[C@H]2C(C)C)cc1 [WS-12, reference compound]
end of action (skin of the upper lip; 2% preparation): dissipated at the end of one hour | time at which duration of action peaks (skin of the upper lip; 2% preparation): 30 min | sensation elicited (skin of the upper lip; applied at 1 to 2% to the philtrum and its environs): strong cold sensations | quality of sensation and duration (coolness not cold, duration at least three hours) (skin of the upper lip): sensations of cold, but of brief duration
